Assay results from ChEMBL document CHEMBL1142782, “Inhibition of tumor cell proliferation by thieno[2,3-d]pyrimidin-4(1H)-one-based analogs” (Bioorg Med Chem Lett, 2005).

What was measured:
[1] = target: Cyclin-dependent kinase inhibitor 1 (Homo sapiens) (UniProt P38936); test: Selectivity ratio between p21(-/-) and p21(+/+) isogenic cell lines; assay type: functional
DLD-1 = test: Inhibitory concentration against human colon tumor cell line DLD1; assay type: functional, cell-based
SW-620 = test: Inhibitory concentration against human colon tumor cell line SW620; assay type: functional, cell-based
LoVo = test: Inhibitory concentration against human colon tumor cell line LoVo; assay type: functional, cell-based
HT-29 = test: Inhibitory concentration against human colon tumor cell line HT-29; assay type: functional, cell-based

Cyclin-dependent kinase inhibitor 1 (Homo sapiens), sequence (P38936 whole entry): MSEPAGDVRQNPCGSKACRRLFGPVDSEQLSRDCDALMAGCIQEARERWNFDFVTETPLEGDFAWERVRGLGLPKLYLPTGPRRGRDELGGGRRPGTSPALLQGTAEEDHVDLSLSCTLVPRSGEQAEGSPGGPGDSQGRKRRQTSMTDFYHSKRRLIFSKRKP

Structure (SMILES)	Ratio [1]	IC50 (DLD-1)	IC50 (SW-620)	IC50 (LoVo)	IC50 (HT-29)
COc1ccc(-c2nc(O)c3c4c(sc3n2)CCCC4)c(F)c1	19	220 nM	420 nM	460 nM	420 nM
CSc1ccc(-c2nc(O)c3c4c(sc3n2)CCCC4)cc1	> 4.9	890 nM	800 nM	430 nM	1000 nM
CCOc1ccc(-c2nc(O)c3c4c(sc3n2)CCCC4)cc1	> 2.4	4600 nM	5000 nM	2600 nM	5000 nM
COc1ccc(-c2nc(O)c3c4c(sc3n2)CCCC4)cc1	> 8.5	290 nM	230 nM	150 nM	330 nM
COc1cc(-c2nc(O)c3c4c(sc3n2)CCCC4)cc(OC)c1OC	> 8.7	280 nM	190 nM	140 nM	240 nM
COc1cc(-c2nc(O)c3c4c(sc3n2)CCC4)cc(OC)c1OC	> 5.8	260 nM	190 nM	130 nM	300 nM
COc1cc(-c2nc(O)c3c4c(sc3n2)CCCCC4)cc(OC)c1OC	8.7	350 nM	220 nM	170 nM	450 nM
COc1ccc(-c2nc(O)c3c4c(sc3n2)CCC4)cc1	8.3	290 nM	230 nM	150 nM	330 nM
O=C(c1cccs1)c1cnn2c(-c3cccc(NC(=O)C4CC4)c3)ccnc12	30	–	–	–	–
